# Measurements as given in patent publication US6383479B1, “Neutrophil-activating factor” (Novartis AG, priority 1987, dated 2002).
# Key:
# Assay type in all cases: cell-based
# [1] = test system: human neutrophils; test: elastase release from human neutrophils pretreated with cytochalasin B (NAF activity); conditions: phosphocellulose fractions
# From the text: Human monocytes are isolated from buffy coats of donor blood (Swiss Red Cross Laboratory, Bern, Switzerland) by centrifugation through a Ficoll-Paque gradient. This method separates neutrophils from the so-called mononuclear cells, a mixture of monocytes (about 20%) and lymphocytes (about 80%). Three monocyte preparations are used: (i) the total mononuclear cell fraction, (ii) monocytes enriched from the mononuclear cell fraction by adherence, and (iii) 90% pure monocytes separated from the lymphocytes by centrifugal elutriation (G. Garotta et al., Biochem. Biophys. Res. Comm. 140 [1986] 948-954 and K. J. Clemetson et al., J. Exp. Med. 161 [1985] 972-983). The cells are cultured in MEM-PPL and stimulated with increasing concentrations (0.1 ng to 1 μg/ml) of LPS. At different times, aliquots of the culture media are sampled and NAF activity is determined as the capacity to induce the release of elastase from human neutrophils pretreated with cytochalasin B (B. Dewald et al., Biochem. Pharmacol. 36 [1987] 2505-2510).
# Mononuclear cells obtained from donor blood buffy coats as described in Example 1 are cultured in MEM-PPL for 48 h in the presence of 100 ng/ml LPS in stirred culture bottles (1.5 liter, 5×10^6 cells/ml). […] Absorbance at 280 nm is monitored continuously as a measure of protein. […]
# [2] = test system: human neutrophils; test: cytosolic free Ca2+ changes in quin-2 loaded human neutrophils; conditions: as low as
# Experimental: Upper graphs: cytosolic free Ca^2+ changes induced by natural (left) and recombinant (right) NAF. Neutrophils (4×10^6 cells/ml) are loaded with 0.1 nmol quin-2/AM and then stimulated with 3 nM NAF (mark). Quin-2 saturation changes calibrated as described in V. Von Tscharner et al., J. Biol. Chem. 261 (1986) 10163-10168.
# (§1) Natural and recombinant NAF are tested in parallel on human neutrophils. They elicit virtually identical changes in cytosolic free Ca^2+, yielding a maximum rise at a concentration as low as 3 nM (FIG. 15). A nearly identical concentration-dependent respiratory burst response is obtained with both preparations in the range of 1 to 30 nM as assessed by chemiluminescence. The equivalence between natural and recombinant NAF is also reflected by chemotaxis and exocytosis measurements. Chemotactic migration is observed between 0.1 and 10 nM with a maximum effect at 1 nM. (Table 6). With either peptide a significant release of vitamin B12-binding protein from the specific granules at 0.3 nM and of beta-glucuronidase from the azurophil granules at 1 nM is observed.
# [3] = test system: human neutrophils; test: stimulus-dependent exocytosis of granule contents by human neutrophils
# Experimental: Neutrophils (5×10^6/ml) suspended in PBS/BSA are preincubated with or without cytochalasin B (5 μg/ml) at 37° for 5 min.
# Granule release is then initiated by adding the stimulus, e.g. NAF or a standard stimulus. The reaction is stopped 15 min later by rapid cooling in ice followed by centrifugation to sediment the cells. Vitamin B12-binding protein, β-glucuronidase and lactate dehydrogenase are determined in the cell-free media and cell pellets, and the release of these constituents is calculated in percent of the total cellular content (B. Dewalt and M. Baggiolini, Methods Enzymol. 132 [1986] 267).
# as §1
# [4] = test system: human neutrophils; test: NAF-induced neutrophil chemotaxis (leading front migration); conditions: for leading front migration: random migration 61 ± 5 μm
# Experimental: as §1
Substance,elastase-releasing activity [1],concentration yielding a maximum rise in cytosolic free Ca2+ [2] [nM],concentration giving significant release of beta-glucuronidase from the azurophil granules [3] [nM],concentration giving significant release of vitamin B12-binding protein from the specific granules [3] [nM],concentration of maximum chemotactic effect [4] [nM],leading front migration ([4]; NAF 0.1 nM) [μm],leading front migration ([4]; NAF 1.0 nM) [μm],leading front migration ([4]; NAF 10.0 nM) [μm]
interleukin-1 [IL-1],no elastase-releasing activity,–,–,–,–,–,–,–
natural NAF: NAF purified from culture fluid of LPS-stimulated human monocytes,–,3,1,0.3,1,98 ± 6,123 ± 6,127 ± 3
"recombinant NAF: 72-amino-acid NAF obtained by recombinant DNA processes, expressed in E. coli",–,3,1,0.3,1,88 ± 6,124 ± 3,126 ± 4
